Results published in patent US20230085307A1, “PYRIDAZINONE COMPOUND AND HERBICIDE” (NISSAN CHEMICAL CORPORATION, priority 2019, published 2023).

How the values were obtained:
Japanese bulrush = assay: Test Example 2: herbicidal activity, application during weed generation under submerged conditions (Table 17, symbol B); format: in vivo, Japanese bulrush (Schoenoplectus juncoides); conditions: AAH 320 g/ha; application during weed generation, submerged conditions
Summary of the method: (§1)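 Effect on each weed is rated three weeks post-treatment, using the same scoring criteria as the preceding test. Plants grow from mixed-sown seed in flooded alluvial soil (4 cm water) at 25° C. to 30° C., and are treated at one to two leaves with diluted emulsion dropped onto the water.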

late watergrass = assay: Test Example 1: herbicidal activity, application before weed generation under submerged conditions (Table 16, symbol A); format: in vivo, late watergrass (Echinochloa oryzicola); conditions: 320 g/ha applied herbicide
Summary of the method: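 Emulsion formulation, water-diluted to set dose, was put onto the flooded surface (4 cm depth, alluvial soil) the same day weeds were sown and 2.5-leaf rice transplanted. After 3 weeks at 25-30 °C under glass, each species was rated 0 (≤5% kill) to 5 (≥90% kill).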

southern crabgrass [1] = assay: Test Example 4: herbicidal effect by soil treatment (Table 19, symbol F); format: in vivo, southern crabgrass (Digitaria ciliaris); conditions: for herbicidal effect rating, F: southern crabgrass: 320 g/ha
Summary of the method: (§2)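 In this soil treatment, the formulated compound reached the seeds only through the soil: seeds were buried about 1.5 cm deep in sterilized diluvial soil, then the diluted emulsion was sprayed over the surface. After three weeks at 25° C. to 30° C. in a greenhouse, effects were graded on criteria from an earlier test.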

persian speedwell = assay: Test Example 5: herbicidal effect by foliage application, plastic box (Table 20, symbol R); format: in vivo, Persian speedwell (Veronica persica); conditions: foliage application, evaluated three weeks after application; for herbicidal effect on R: persian speedwell: 320 g/ha; for R: persian speedwell, herbicidal effect (criteria 0-5): AAH 320 g/ha
Summary of the method: (§3)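 Plants were sown into sterilized diluvial soil under about 1.5 cm cover and kept in a greenhouse at 25° C. to 30° C. Fourteen days on, foliage received an even spray of the diluted emulsion. Herbicidal or crop effect was judged three weeks afterwards.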

redroot pigweed = assay: Test Example 4: herbicidal effect by soil treatment (Table 19, symbol N); format: in vivo, redroot pigweed (Amaranthus retroflexus); conditions: for herbicidal effect rating, N: redroot pigweed: 320 g/ha
Summary of the method: as §2

rice flat sedge = assay: Test Example 3: herbicidal effect by foliage application, Wagner pot (Table 18, symbol E); format: in vivo, rice flat sedge (Cyperus iria); conditions: for herbicidal effect on E (rice flat sedge), rating 0-5: 320 g/ha; for herbicidal effect on E: rice flat sedge: amount of applied herbicide 320 g/ha
Summary of the method: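 Plants were sown in alluvial soil held under 0.1–0.5 cm standing water and grown 14 days in a greenhouse at 25–30 °C. An emulsifiable formulation, water-diluted to the set dose, was then sprayed onto the foliage, and effects were scored three weeks later using previously defined criteria.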

windgrass = assay: Test Example 5: herbicidal effect by foliage application, plastic box (Table 20, symbol L); format: in vivo, windgrass (Apera spica-venti); conditions: foliage application, evaluated three weeks after application; for herbicidal effect on L: windgrass: 320 g/ha; for L: windgrass, herbicidal effect (criteria 0-5): AAH 320 g/ha
Summary of the method: as §3

green foxtail [2] = assay: Test Example 4: herbicidal effect by soil treatment (Table 19, symbol G); format: in vivo, green foxtail (Setaria viridis); conditions: for herbicidal effect rating, G: green foxtail: 320 g/ha
Summary of the method: as §2

oval-leafed pondweed = assay: Test Example 2: herbicidal activity, application during weed generation under submerged conditions (Table 17, symbol C); format: in vivo, oval-leafed pondweed (Monochoria vaginalis); conditions: AAH 320 g/ha; application during weed generation, submerged conditions
Summary of the method: as §1

blackgrass = assay: Test Example 4: herbicidal effect by soil treatment (Table 19, symbol J); format: in vivo, blackgrass (Alopecurus myosuroides); conditions: for herbicidal effect rating, J: blackgrass: 320 g/ha
Summary of the method: as §2

green foxtail [3] = assay: Test Example 5: herbicidal effect by foliage application, plastic box (Table 20, symbol G); format: in vivo, green foxtail (Setaria viridis); conditions: foliage application, evaluated three weeks after application; for herbicidal effect on G: green foxtail: 320 g/ha; for G: green foxtail, herbicidal effect (criteria 0-5): AAH 320 g/ha
Summary of the method: as §3

chickweed [4] = assay: Test Example 5: herbicidal effect by foliage application, plastic box (Table 20, symbol P); format: in vivo, common chickweed (Stellaria media); conditions: foliage application, evaluated three weeks after application; for herbicidal effect on P: chickweed: 320 g/ha; for P: chickweed, herbicidal effect (criteria 0-5): AAH 320 g/ha
Summary of the method: as §3

southern crabgrass [5] = assay: Test Example 5: herbicidal effect by foliage application, plastic box (Table 20, symbol F); format: in vivo, southern crabgrass (Digitaria ciliaris); conditions: foliage application, evaluated three weeks after application; for herbicidal effect on F: southern crabgrass: 320 g/ha; for F: southern crabgrass, herbicidal effect (criteria 0-5): AAH 320 g/ha
Summary of the method: as §3

wild oat = assay: Test Example 5: herbicidal effect by foliage application, plastic box (Table 20, symbol I); format: in vivo, wild oat (Avena fatua); conditions: foliage application, evaluated three weeks after application; for herbicidal effect on I: wild oat: 320 g/ha; for I: wild oat, herbicidal effect (criteria 0-5): AAH 320 g/ha
Summary of the method: as §3

Italian ryegrass = assay: Test Example 4: herbicidal effect by soil treatment (Table 19, symbol K); format: in vivo, Italian ryegrass (Lolium multiflorum); conditions: for herbicidal effect rating, K: Italian ryegrass: 320 g/ha
Summary of the method: as §2

chickweed [6] = assay: Test Example 4: herbicidal effect by soil treatment (Table 19, symbol P); format: in vivo, common chickweed (Stellaria media); conditions: for herbicidal effect rating, P: chickweed: 320 g/ha
Summary of the method: as §2

[7] = amount of applied herbicide 320 g/ha

| SMILES | herbicidal effect rating, B: Japanese bulrush (Japanese bulrush) | Herbicidal effect on A: late watergrass (grade 0-5) (late watergrass) | herbicidal effect rating, F: southern crabgrass (southern crabgrass [1]) | herbicidal effect on R: persian speedwell (persian speedwell) | herbicidal effect rating, N: redroot pigweed (redroot pigweed) | herbicidal effect on E (rice flat sedge), rating 0-5 (rice flat sedge) | herbicidal effect on L: windgrass (windgrass) | herbicidal effect rating, G: green foxtail (green foxtail [2]) | herbicidal effect rating, C: oval-leafed pondweed (oval-leafed pondweed) | herbicidal effect rating, J: blackgrass (blackgrass) | herbicidal effect on G: green foxtail (green foxtail [3]) | herbicidal effect on P: chickweed (chickweed [4]) | herbicidal effect on F: southern crabgrass (southern crabgrass [5]) | herbicidal effect on I: wild oat (wild oat) | herbicidal effect rating, K: Italian ryegrass (Italian ryegrass) | herbicidal effect rating, P: chickweed (chickweed [6]) | herbicidal effect on F: southern crabgrass (southern crabgrass [1]; [7]) | R: persian speedwell, herbicidal effect (criteria 0-5) (persian speedwell) | herbicidal effect on N: redroot pigweed (redroot pigweed; [7]) | herbicidal effect on E: rice flat sedge (rice flat sedge) | other results |
| --- | --- | --- | --- | --- | --- | --- | --- | --- | --- | --- | --- | --- | --- | --- | --- | --- | --- | --- | --- | --- | --- |
| CCCC(=O)Oc1c(C)nn(C)c(=O)c1-c1c(-c2ccc3c(c2)OCO3)sc2ccc(F)cc12 [2-091] | 3 (Herbicidal rate of 40% or more and less than 70%) | 3 (Herbicidal rate of 40% or more and less than 70%) | 2 (Herbicidal rate of 20% or more and less than 40%) | 5 (Herbicidal rate of 90% or more (almost completely withered)) | 5 (Herbicidal rate of 90% or more (almost completely withered)) | 5 (Herbicidal rate of 90% or more (almost completely withered)) | 0 (Herbicidal rate of 5% or less (almost no effect)) | 3 (Herbicidal rate of 40% or more and less than 70%) | 4 (Herbicidal rate of 70% or more and less than 90%) | 0 (Herbicidal rate of 5% or less (almost no effect)) | 1 (Herbicidal rate of 5% or more and less than 20%) | 5 (Herbicidal rate of 90% or more (almost completely withered)) | 2 (Herbicidal rate of 20% or more and less than 40%) | 0 (Herbicidal rate of 5% or less (almost no effect)) | 3 (Herbicidal rate of 40% or more and less than 70%) | 1 (Herbicidal rate of 5% or more and less than 20%) |  |  |  |  |  |
| Cc1nn(C)c(=O)c(-c2c(-c3ccc(OCc4ccccc4)cc3)sc3ccc(F)cc23)c1O [2-062] | 3 (Herbicidal rate of 40% or more and less than 70%) | 4 (Herbicidal rate of 70% or more and less than 90%) | 1 (Herbicidal rate of 5% or more and less than 20%) | 5 (Herbicidal rate of 90% or more (almost completely withered)) | 4 (Herbicidal rate of 70% or more and less than 90%) | 5 (Herbicidal rate of 90% or more (almost completely withered)) | 4 (Herbicidal rate of 70% or more and less than 90%) | 3 (Herbicidal rate of 40% or more and less than 70%) | 2 (Herbicidal rate of 20% or more and less than 40%) | 0 (Herbicidal rate of 5% or less (almost no effect)) | 5 (Herbicidal rate of 90% or more (almost completely withered)) | 5 (Herbicidal rate of 90% or more (almost completely withered)) | 3 (Herbicidal rate of 40% or more and less than 70%) | 0 (Herbicidal rate of 5% or less (almost no effect)) | 0 (Herbicidal rate of 5% or less (almost no effect)) | 0 (Herbicidal rate of 5% or less (almost no effect)) |  |  |  |  |  |
| CCCC(=O)Oc1c(C)nn(C)c(=O)c1-c1c(-c2ccc(F)c(F)c2)sc2ccc(F)cc12 [2-345] | 5 (Herbicidal rate of 90% or more (almost completely withered)) | 4 (Herbicidal rate of 70% or more and less than 90%) |  |  |  |  |  |  | 4 (Herbicidal rate of 70% or more and less than 90%) |  |  |  |  |  |  |  | 3 (Herbicidal rate of 40% or more and less than 70%) | 5 (Herbicidal rate of 90% or more (almost completely withered)) | 5 (Herbicidal rate of 90% or more (almost completely withered)) | 5 (Herbicidal rate of 90% or more (almost completely withered)) | L: windgrass, herbicidal effect (criteria 0-5) (windgrass): 1 (Herbicidal rate of 5% or more and less than 20%); herbicidal effect on G: green foxtail (green foxtail [2]; [7]): 5 (Herbicidal rate of 90% or more (almost completely withered)); herbicidal effect on J: blackgrass (blackgrass; [7]): 0 (Herbicidal rate of 5% or less (almost no effect)); G: green foxtail, herbicidal effect (criteria 0-5) (green foxtail [3]): 5 (Herbicidal rate of 90% or more (almost completely withered)); P: chickweed, herbicidal effect (criteria 0-5) (chickweed [4]): 5 (Herbicidal rate of 90% or more (almost completely withered)); F: southern crabgrass, herbicidal effect (criteria 0-5) (southern crabgrass [5]): 4 (Herbicidal rate of 70% or more and less than 90%); I: wild oat, herbicidal effect (criteria 0-5) (wild oat): 3 (Herbicidal rate of 40% or more and less than 70%); herbicidal effect on K: Italian ryegrass (Italian ryegrass; [7]): 0 (Herbicidal rate of 5% or less (almost no effect)); herbicidal effect on P: chickweed (chickweed [6]; [7]): 3 (Herbicidal rate of 40% or more and less than 70%) |
| COCCOC(=O)Oc1c(C)nn(C)c(=O)c1-c1c(-c2ccc(OC(F)F)cc2)sc2ccc(F)cc12 [2-295] | 3 (Herbicidal rate of 40% or more and less than 70%) | 4 (Herbicidal rate of 70% or more and less than 90%) |  |  |  |  |  |  | 3 (Herbicidal rate of 40% or more and less than 70%) |  |  |  |  |  |  |  | 5 (Herbicidal rate of 90% or more (almost completely withered)) | 5 (Herbicidal rate of 90% or more (almost completely withered)) | 5 (Herbicidal rate of 90% or more (almost completely withered)) | 5 (Herbicidal rate of 90% or more (almost completely withered)) | L: windgrass, herbicidal effect (criteria 0-5) (windgrass): 5 (Herbicidal rate of 90% or more (almost completely withered)); herbicidal effect on G: green foxtail (green foxtail [2]; [7]): 5 (Herbicidal rate of 90% or more (almost completely withered)); herbicidal effect on J: blackgrass (blackgrass; [7]): 4 (Herbicidal rate of 70% or more and less than 90%); G: green foxtail, herbicidal effect (criteria 0-5) (green foxtail [3]): 5 (Herbicidal rate of 90% or more (almost completely withered)); P: chickweed, herbicidal effect (criteria 0-5) (chickweed [4]): 5 (Herbicidal rate of 90% or more (almost completely withered)); F: southern crabgrass, herbicidal effect (criteria 0-5) (southern crabgrass [5]): 4 (Herbicidal rate of 70% or more and less than 90%); I: wild oat, herbicidal effect (criteria 0-5) (wild oat): 3 (Herbicidal rate of 40% or more and less than 70%); herbicidal effect on K: Italian ryegrass (Italian ryegrass; [7]): 5 (Herbicidal rate of 90% or more (almost completely withered)); herbicidal effect on P: chickweed (chickweed [6]; [7]): 4 (Herbicidal rate of 70% or more and less than 90%) |
| CCCC(=O)Oc1c(C)nn(C)c(=O)c1-c1c(-c2ccc(Cl)cc2)sc2ccc(Cl)cc12 [2-100] | 0 (Herbicidal rate of 5% or less (almost no effect)) | 3 (Herbicidal rate of 40% or more and less than 70%) |  | 5 (Herbicidal rate of 90% or more (almost completely withered)) |  | 3 (Herbicidal rate of 40% or more and less than 70%) | 5 (Herbicidal rate of 90% or more (almost completely withered)) |  | 0 (Herbicidal rate of 5% or less (almost no effect)) |  | 4 (Herbicidal rate of 70% or more and less than 90%) | 5 (Herbicidal rate of 90% or more (almost completely withered)) | 4 (Herbicidal rate of 70% or more and less than 90%) | 5 (Herbicidal rate of 90% or more (almost completely withered)) |  |  |  |  |  |  | F: southern crabgrass, herbicidal effect rating (southern crabgrass [1]; [7]): 0 (Herbicidal rate of 5% or less (almost no effect)); N: redroot pigweed, herbicidal effect rating (redroot pigweed; [7]): 4 (Herbicidal rate of 70% or more and less than 90%); G: green foxtail, herbicidal effect rating (green foxtail [2]; [7]): 0 (Herbicidal rate of 5% or less (almost no effect)); J: blackgrass, herbicidal effect rating (blackgrass; [7]): 0 (Herbicidal rate of 5% or less (almost no effect)); K: Italian ryegrass, herbicidal effect rating (Italian ryegrass; [7]): 3 (Herbicidal rate of 40% or more and less than 70%); P: chickweed, herbicidal effect rating (chickweed [6]; [7]): 1 (Herbicidal rate of 5% or more and less than 20%) |
